Test results taken from PMC11642016 (International Journal of Molecular Sciences, 2024).

Legend:
[1] = system: Fadu cells; test: CellTiter-Glo luminescent cell viability assay, Fadu; details: 72 h, 72 h, second-set screening, mean ± SD, n = 2; for viability at 2.8 µM / viability at 8.3 µM / viability at 25 µM: Homo sapiens, FaDu; for viability at 2.8 µM: read-out: Cell Viability (% of Control) 2.8 µM, Fadu; for viability at 8.3 µM: read-out: Cell Viability (% of Control) 8.3 µM, Fadu; for viability at 25 µM: read-out: Cell Viability (% of Control) 25 µM, Fadu; for Cell Viability (% of Control) 2.8 µM / Cell Viability (% of Control) 8.3 µM / Cell Viability (% of Control) 25 µM: Fadu
[2] = system: PANC-1 cells; test: CellTiter-Glo luminescent cell viability assay, PANC-1; details: 72 h, second-set screening, mean ± SD, n = 2; for viability at 2.8 µM / viability at 8.3 µM / viability at 25 µM: Homo sapiens, PANC-1, 72 h; for viability at 2.8 µM: read-out: Cell Viability (% of Control) 2.8 µM, PANC-1; for viability at 8.3 µM: read-out: Cell Viability (% of Control) 8.3 µM, PANC-1; for viability at 25 µM: read-out: Cell Viability (% of Control) 25 µM, PANC-1; for Cell Viability (% of Control) 2.8 µM / Cell Viability (% of Control) 8.3 µM / Cell Viability (% of Control) 25 µM: PANC-1

| SMILES | viability at 2.8 µM [1] [%] | viability at 8.3 µM [1] [%] | viability at 25 µM [1] [%] | viability at 2.8 µM [2] [%] | viability at 8.3 µM [2] [%] | viability at 25 µM [2] [%] | Cell Viability (% of Control) 2.8 µM [1] | Cell Viability (% of Control) 8.3 µM [1] | Cell Viability (% of Control) 25 µM [1] | Cell Viability (% of Control) 2.8 µM [2] | Cell Viability (% of Control) 8.3 µM [2] | Cell Viability (% of Control) 25 µM [2] |
| --- | --- | --- | --- | --- | --- | --- | --- | --- | --- | --- | --- | --- |
| NCc1cccc(CN2C(=O)C3=C(CCN(Cc4ccc(-n5cc(-c6ccccc6)nn5)cc4)C3)N3CCN=C23)c1 [37b] | 108 ± 7 | 91 ± 12 | 13 ± 6 | 110 ± 5 | 113 ± 3 | 5 ± 6 |  |  |  |  |  |  |
| CN(C)CC#Cc1cccc(CN2C(=O)C3=C(CCN(Cc4ccc(-n5cc(-[c-]6cccc6)nn5)cc4)C3)N3CCN=C23)c1.[Fe+2].c1cc[cH-]c1 [39a] |  |  |  |  |  |  | 99 ± 9 % of Control | 45 ± 52 % of Control | 13 ± 15 % of Control | 112 ± 7 % of Control | 62 ± 72 % of Control | 35 ± 41 % of Control |
| CN(C)CC#Cc1cccc(CN2C(=O)C3=C(CCN(Cc4ccc(-n5cc(-c6ccccc6)nn5)cc4)C3)N3CCN=C23)c1 [39b] | 96 ± 4 | 15 ± 8 | 1 ± 1 | 107 ± 3 | 25 ± 20 | 2 ± 3 |  |  |  |  |  |  |
| O=C1C2=C(CCN(Cc3ccc(-n4cc(-[c-]5cccc5)nn4)cc3)C2)N2CCN=C2N1Cc1cccc(C#CCN2CCCCC2)c1.[Fe+2].c1cc[cH-]c1 [40a] |  |  |  |  |  |  | 105 ± 5 % of Control | 81 ± 21 % of Control | 45 ± 34 % of Control | 119 ± 4 % of Control | 72 ± 61 % of Control | 61 ± 67 % of Control |
| O=C1C2=C(CCN(Cc3ccc(-n4cc(-c5ccccc5)nn4)cc3)C2)N2CCN=C2N1Cc1cccc(C#CCN2CCCCC2)c1 [40b] | 92 ± 9 | 60 ± 3 | 24 ± 11 | 125 ± 5 | 12 ± 10 | 1 ± 1 |  |  |  |  |  |  |
| CN1CCN(CC#Cc2cccc(CN3C(=O)C4=C(CCN(Cc5ccc(-n6cc(-c7ccccc7)nn6)cc5)C4)N4CCN=C34)c2)CC1 [41b] | 106 ± 1 | 30 ± 28 | 3 ± 1 | 110 ± 6 | 0 | 0 |  |  |  |  |  |  |
| O=C1C2=C(CCN(Cc3ccc(-n4cc(-[c-]5cccc5)nn4)cc3)C2)N2CCN=C2N1Cc1cccc(C#CCN2CCOCC2)c1.[Fe+2].c1cc[cH-]c1 [42a] |  |  |  |  |  |  | 121 ± 3 % of Control | 112 ± 11 % of Control | 55 ± 12 % of Control | 132 ± 4 % of Control | 75 ± 31 % of Control | 58 ± 36 % of Control |
| O=C1C2=C(CCN(Cc3ccc(-n4cc(-c5ccccc5)nn4)cc3)C2)N2CCN=C2N1Cc1cccc(C#CCN2CCOCC2)c1 [42b] | 108 ± 7 | 91 ± 12 | 13 ± 6 | 94 ± 5 | 82 ± 5 | 59 ± 3 |  |  |  |  |  |  |
